# Experimental data as given in the supplement of paper PMC13386468.
# How the values were obtained:
# Assay in all cases: IC50 for competition of protein binding to Kinobeads
# Conditions in all cases: assay detail: Kinobeads competition in P. falciparum blood-stage lysate
# UniProt Q8ILL2 = molecular target: UniProt Q8ILL2
# UniProt O96212 = molecular target: UniProt O96212
# UniProt Q8IEE9 = molecular target: UniProt Q8IEE9
# UniProt Q9U0K8 = molecular target: UniProt Q9U0K8
# UniProt Q8I0V4 = molecular target: UniProt Q8I0V4
# UniProt Q8I5Y3 = molecular target: UniProt Q8I5Y3
# UniProt Q8IKZ8 = molecular target: UniProt Q8IKZ8
# UniProt O96236 = molecular target: UniProt O96236
# UniProt Q8IL22 = molecular target: UniProt Q8IL22
# UniProt Q8IL48 = molecular target: UniProt Q8IL48
# UniProt Q8IJR9 = molecular target: UniProt Q8IJR9
# UniProt Q8IL57 = molecular target: UniProt Q8IL57
# UniProt Q8II24 = molecular target: UniProt Q8II24
# UniProt Q8II01 = molecular target: UniProt Q8II01
# UniProt Q8I479 = molecular target: UniProt Q8I479
# UniProt Q8IJN7 = molecular target: UniProt Q8IJN7
# UniProt Q8IAW0 = molecular target: UniProt Q8IAW0
# UniProt C6KSV0 = molecular target: UniProt C6KSV0
# UniProt Q8I4W4 = molecular target: UniProt Q8I4W4
# UniProt Q8IBA0 = molecular target: UniProt Q8IBA0
# UniProt Q8IE18 = molecular target: UniProt Q8IE18
# UniProt O97225 = molecular target: UniProt O97225
# UniProt Q8ILL5 = molecular target: UniProt Q8ILL5
# UniProt Q8IDD4 = molecular target: UniProt Q8IDD4
# UniProt Q8IB60 = molecular target: UniProt Q8IB60
# UniProt Q8I562 = molecular target: UniProt Q8I562
# UniProt O96258 = molecular target: UniProt O96258
# UniProt Q8IJZ9 = molecular target: UniProt Q8IJZ9
# UniProt C0H5A0 = molecular target: UniProt C0H5A0
# UniProt O96260 = molecular target: UniProt O96260
# UniProt Q8IJC7 = molecular target: UniProt Q8IJC7
# UniProt Q8IJ34 = molecular target: UniProt Q8IJ34
# UniProt Q8IEM3 = molecular target: UniProt Q8IEM3
# UniProt Q8IDG2 = molecular target: UniProt Q8IDG2
# UniProt Q8I4X0 = molecular target: UniProt Q8I4X0
# UniProt Q8I1U8 = molecular target: UniProt Q8I1U8
# UniProt Q8IAR3 = molecular target: UniProt Q8IAR3
# UniProt Q8IDJ4 = molecular target: UniProt Q8IDJ4
# UniProt Q8IHR5 = molecular target: UniProt Q8IHR5
# UniProt Q8ILR7 = molecular target: UniProt Q8ILR7
# UniProt Q8IDS6 = molecular target: UniProt Q8IDS6
# Q8ICR0 = Q8ICR0 (UniProt O15865)
# UniProt Q8I1Z8 = molecular target: UniProt Q8I1Z8
# UniProt Q8III5 = molecular target: UniProt Q8III5
# UniProt Q8IJ72 = molecular target: UniProt Q8IJ72
# UniProt Q8IL86 = molecular target: UniProt Q8IL86
# UniProt Q8ILA4 = molecular target: UniProt Q8ILA4
# UniProt Q7KQK0 = molecular target: UniProt Q7KQK0
# UniProt O96203 = molecular target: UniProt O96203
# UniProt Q8I0V2 = molecular target: UniProt Q8I0V2
# UniProt Q6LFH8 = molecular target: UniProt Q6LFH8
# 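Further: native unpurified kinases from lysate captured on beads bearing immobilized kinase inhibitors, with bead-bound kinases quantified by mass spectrometry across compound doses.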
# UniProt Q6LFH8, sequence (Q6LFH8 whole entry): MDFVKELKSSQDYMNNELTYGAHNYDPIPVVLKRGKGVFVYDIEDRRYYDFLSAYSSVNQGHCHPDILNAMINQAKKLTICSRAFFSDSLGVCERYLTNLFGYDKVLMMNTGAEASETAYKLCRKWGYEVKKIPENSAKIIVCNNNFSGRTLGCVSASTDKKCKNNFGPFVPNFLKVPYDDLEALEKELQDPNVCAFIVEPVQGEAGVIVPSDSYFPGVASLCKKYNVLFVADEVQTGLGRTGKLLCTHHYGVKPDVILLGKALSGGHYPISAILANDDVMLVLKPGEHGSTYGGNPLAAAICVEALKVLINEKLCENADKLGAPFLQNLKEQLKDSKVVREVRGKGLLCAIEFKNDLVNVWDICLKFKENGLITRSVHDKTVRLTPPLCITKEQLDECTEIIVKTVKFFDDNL
# Q8ICR0, sequence (O15865 whole entry, one chain of several): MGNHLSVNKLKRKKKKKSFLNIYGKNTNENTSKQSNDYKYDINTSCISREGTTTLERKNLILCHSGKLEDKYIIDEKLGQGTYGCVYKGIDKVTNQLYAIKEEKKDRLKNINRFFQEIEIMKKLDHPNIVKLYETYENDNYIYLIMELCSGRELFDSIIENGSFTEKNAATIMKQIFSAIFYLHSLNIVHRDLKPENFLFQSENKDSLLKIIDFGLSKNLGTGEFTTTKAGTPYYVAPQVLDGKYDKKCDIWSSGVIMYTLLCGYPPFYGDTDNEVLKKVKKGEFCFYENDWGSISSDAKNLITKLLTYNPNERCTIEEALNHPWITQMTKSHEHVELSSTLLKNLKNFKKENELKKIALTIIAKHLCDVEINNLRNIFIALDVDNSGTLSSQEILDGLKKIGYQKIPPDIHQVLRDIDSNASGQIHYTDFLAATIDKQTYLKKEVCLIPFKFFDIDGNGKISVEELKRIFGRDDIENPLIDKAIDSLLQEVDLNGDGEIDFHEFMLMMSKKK
# UniProt Q8IJR9, sequence (Q8IJR9 whole entry): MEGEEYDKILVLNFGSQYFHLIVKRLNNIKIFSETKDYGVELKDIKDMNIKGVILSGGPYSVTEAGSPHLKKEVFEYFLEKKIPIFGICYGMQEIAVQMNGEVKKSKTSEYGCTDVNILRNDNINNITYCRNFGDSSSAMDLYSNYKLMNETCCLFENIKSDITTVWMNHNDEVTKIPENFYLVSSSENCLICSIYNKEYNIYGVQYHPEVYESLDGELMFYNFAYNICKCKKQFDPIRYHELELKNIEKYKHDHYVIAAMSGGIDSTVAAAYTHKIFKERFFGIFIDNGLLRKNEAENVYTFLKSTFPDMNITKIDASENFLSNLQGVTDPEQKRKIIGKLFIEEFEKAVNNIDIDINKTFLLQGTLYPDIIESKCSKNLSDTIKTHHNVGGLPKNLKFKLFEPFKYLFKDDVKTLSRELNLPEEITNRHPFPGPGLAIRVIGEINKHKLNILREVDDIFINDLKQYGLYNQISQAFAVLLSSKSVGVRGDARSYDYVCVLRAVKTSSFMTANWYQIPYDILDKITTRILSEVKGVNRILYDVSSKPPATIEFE
# UniProt Q8IJN7, sequence (Q8IJN7 whole entry): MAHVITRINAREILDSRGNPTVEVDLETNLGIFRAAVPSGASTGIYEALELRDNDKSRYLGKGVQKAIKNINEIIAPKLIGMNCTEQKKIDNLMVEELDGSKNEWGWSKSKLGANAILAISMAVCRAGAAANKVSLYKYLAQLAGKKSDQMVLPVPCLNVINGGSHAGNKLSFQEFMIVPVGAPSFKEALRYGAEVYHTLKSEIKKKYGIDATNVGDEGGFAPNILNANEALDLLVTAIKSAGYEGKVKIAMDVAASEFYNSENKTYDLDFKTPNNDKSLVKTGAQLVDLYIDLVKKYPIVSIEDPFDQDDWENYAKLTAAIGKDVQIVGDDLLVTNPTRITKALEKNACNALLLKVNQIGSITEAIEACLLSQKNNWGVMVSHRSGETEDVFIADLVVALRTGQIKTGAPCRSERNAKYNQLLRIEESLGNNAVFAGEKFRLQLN
# UniProt Q8I4X0, sequence (Q8I4X0 whole entry): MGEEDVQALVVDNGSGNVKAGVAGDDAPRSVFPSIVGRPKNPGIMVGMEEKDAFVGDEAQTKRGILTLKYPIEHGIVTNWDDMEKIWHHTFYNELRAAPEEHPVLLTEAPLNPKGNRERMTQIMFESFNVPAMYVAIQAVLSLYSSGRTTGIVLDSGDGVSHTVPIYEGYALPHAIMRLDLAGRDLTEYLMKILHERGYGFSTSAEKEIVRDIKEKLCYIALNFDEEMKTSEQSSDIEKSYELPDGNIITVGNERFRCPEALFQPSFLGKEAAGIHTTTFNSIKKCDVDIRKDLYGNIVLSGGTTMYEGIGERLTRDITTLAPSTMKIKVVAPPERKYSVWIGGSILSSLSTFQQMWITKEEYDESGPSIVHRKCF
smiles,measurement,setting,value
O=c1[nH]c2ccc(Cl)cc2c(NC2CN3CCC2CC3)c1-c1nc2ccccc2[nH]1 (stereo unspecified) [CHIR-124],IC50,UniProt Q8ILL2,> 20 µM
same,IC50,UniProt O96212,> 20 µM
same,IC50,UniProt Q8IEE9,> 20 µM
same,IC50,UniProt Q9U0K8,5.2 µM
same,IC50,UniProt Q8I0V4,> 20 µM
same,IC50,UniProt Q8I5Y3,> 20 µM
same,IC50,UniProt Q8IKZ8,> 20 µM
same,IC50,UniProt O96236,> 20 µM
same,IC50,UniProt Q8IL22,> 20 µM
same,IC50,UniProt Q8IL48,> 20 µM
same,IC50,UniProt Q8IJR9,> 20 µM
same,IC50,UniProt Q8IL57,> 20 µM
same,IC50,UniProt Q8II24,> 20 µM
same,IC50,UniProt Q8II01,> 20 µM
same,IC50,UniProt Q8I479,> 20 µM
same,IC50,UniProt Q8IJN7,> 20 µM
same,IC50,UniProt Q8IAW0,> 20 µM
same,IC50,UniProt C6KSV0,> 20 µM
same,IC50,UniProt Q8I4W4,> 20 µM
same,IC50,UniProt Q8IBA0,> 20 µM
same,IC50,UniProt Q8IE18,> 20 µM
same,IC50,UniProt O97225,> 20 µM
same,IC50,UniProt Q8ILL5,> 20 µM
same,IC50,UniProt Q8IDD4,> 20 µM
same,IC50,UniProt Q8IB60,> 20 µM
same,IC50,UniProt Q8I562,> 20 µM
same,IC50,UniProt O96258,> 20 µM
same,IC50,UniProt Q8IJZ9,> 20 µM
same,IC50,UniProt C0H5A0,> 20 µM
same,IC50,UniProt O96260,> 20 µM
same,IC50,UniProt Q8IJC7,> 20 µM
same,IC50,UniProt Q8IJ34,> 20 µM
same,IC50,UniProt Q8IEM3,> 20 µM
same,IC50,UniProt Q8IDG2,> 20 µM
same,IC50,UniProt Q8I4X0,> 20 µM
same,IC50,UniProt Q8I1U8,> 20 µM
same,IC50,UniProt Q8IAR3,> 20 µM
same,IC50,UniProt Q8IDJ4,> 20 µM
same,IC50,UniProt Q8IHR5,> 20 µM
same,IC50,UniProt Q8ILR7,> 20 µM
same,IC50,UniProt Q8IDS6,> 20 µM
same,IC50,Q8ICR0,> 20 µM
same,IC50,UniProt Q8I1Z8,> 20 µM
same,IC50,UniProt Q8III5,> 20 µM
same,IC50,UniProt Q8IJ72,> 20 µM
same,IC50,UniProt Q8IL86,> 20 µM
same,IC50,UniProt Q8ILA4,> 20 µM
same,IC50,UniProt Q7KQK0,0.85 µM
same,IC50,UniProt O96203,> 20 µM
same,IC50,UniProt Q8I0V2,> 20 µM
same,IC50,UniProt Q6LFH8,> 20 µM
